# According to patent publication US20220168268A1, “SMALL-MOLECULE INHIBITOR OF PD-1/PD-L1, PHARMACEUTICAL COMPOSITION THEREOF WITH PD-L1 ANTIBODY, AND APPLICATION OF SAME” (Guangzhou Maxinovel Pharmaceuticals Co., Ltd., priority 2019, published 2022):
# Values joined by “and” are separate entries in the source; they are usually repeats but may differ in a detail not shown here. Equal values may be shown once.
# Legend:
# [1] = Pharmacokinetic experiment in mice (iv and oral gavage); format: in vivo; conditions: mouse, whole blood; CD1 male mice; tail vein 2 mg/kg and oral gavage 10 mg/kg
# Excerpt: Glipizide (molecular formula was C21H27N5O4S, molecular weight was 445.5 g/mol, Analytical Reagent) purchased from Sigma-Aldrich (U.S.A.), was used as the internal standard for analysis. Methanol, acetonitrile and formic acid (HPLC grade) were purchased from Sigma-Aldrich (U.S.A.), and pure water was purchased from Hangzhou Wahaha Group Co., Ltd. (Hangzhou, China). Other chemical reagents were all analytical reagents.
# CD1 male mice, six per group, 6-7 weeks old, 29-31 g, were purchased from LC Laboratory Animal Co. LTD. Before the experiment, the animals should be kept for at least 3 days to adapt to the environment. Throughout the experiment, the animals were required to fast overnight, and allowed to drink water freely during the period, and the surviving animals resumed feeding 4 hours after administration.
# 1. The compound was formulated into a solution with a concentration of 0.4 mg/mL with 10% DMSO, 10% Solutol HS 15 and 80% Saline.
# 2. The above prepared solution was administered to 3 mice by tail vein injection (compound dosage was 2 mg/kg), and was administered to another 3 mice by oral gavage (compound dosage was 10 mg/kg) simultaneously.
# 3. Approximately 30 μL of blood was collected from each of the above 6 mice at 5 minutes, 15 minutes, 30 minutes, 1 hour, 2 hours, 4 hours, 8 hours and 24 hours after administration into the EDTA-K2 anticoagulation tube (set on wet ice), and 20 μL of blood was immediately diluted with 60 μL of water, and then put in the refrigerator at −70° C. for long-term storage until the sample was analyzed.
# 4. 20 μL of the above solution was transfered into a 96-well deep well sample plate, and 150 μL of glipizide internal standard acetonitrile solution (the concentration was 100 ng/mL) was added, vortexed for 10 min, and centrifuged at […] for 10 min 1 μL of the supernatant was taken for LCMSMS analysis.
# 5. Based on the drug concentration-time data, WinNonlin 6.4 software (USA) was used to calculate the pharmacokinetic parameters of the compound according to the non-compartment model.
# PD-1/PD-L1 = molecular target: T1, PD-1/PD-L1 (Homo sapiens, UniProt Q9NZQ7); experiment: Homogeneous Time-Resolved Fluorescence (HTRF) PD-1/PD-L1 binding assay; conditions: CisBio kit
# T1 construct: unspecified kit tag (tag1 or tag2, recognised by the detection antibodies); purchased CisBio 64CUS000C-1
# Method: Homogenouse Time-Resolved Fluorescence (HTRF) binding assay was used to determine the binding activity of the compound of the present disclosure to PD-1/PD-L1.
# The purchased kit (CisBio, #64CUS000C-1) contained the reagents required for experiments such as PD-1, PD-L1, anti-tagl-Eu, Anti-tag2-XL665, Dilute Buffer and Detection Buffer.
# 1. The compound was formulated to 10 concentrations with a three-fold concentration gradient with 100% DMSO.
# 2. The solution of the compound in DMSO was added to Dilute Buffer, and mixed evenly and then transferred to a 96-well plate.
# 3. PD-L1 was diluted with Dilute Buffer and added to the 96-well plate above.
# 4. PD-1 was diluted with Dilute Buffer, then added to the 96-well plate above and incubated at room temperature for 30 minutes.
# 5. One portion of anti-tag1-Eu and one portion of anti-tag2-XL665 were added to Detection Buffer, mixed evenly and transferred to the 96-well plate above.
# 6. The mixed solution in the 96-well plate were incubated at room temperature for 1 to 24 hours.
# 7. HTRF values were read by Envision.
# [2] = tested on: colon cancer MC-38-hPD-L1; experiment: In vivo pharmacodynamics in hPD-1 knock-in mouse colon cancer MC-38-hPD-L1 model; parameters: species or system C57BL/6-hPD-1 mice; conditions: D19; for Tumor Volume: mean ± SEM
# Method: In vivo pharmacodynamics study of PD-L1 antibody Durvalumab and compound 29 used singly or in combination in hPD-1 knock-in mouse colon cancer MC-38-hPD-L1 model
# Antibody: PD-L1 antibody Imfinzi (Durvalumab), 120 mg/2.4 mL (50 mg/mL), Lot: 041E17C. Manufacturer: AstraZeneca, purchased from Hong Kong Mingchuang Pharmacy Co., Ltd., stored at 2-8° C.
# Experimental animals: Human PD-1 transgenic mice, strain: C57BL/6-hPD-1 mice, 6-8 weeks, weighing 18-21 grams, female, 120 mice, purchased from GemPharmatech Co., Ltd.
# Human PD-L1 gene was knocked into MC-38 cells (MC-38-hPD-L1 cells), MC-38 cells was adherent cultured in vitro in DMEM medium with 10% heat-inactivated fetal bovine serum and hygromycinB (final concentration […]) at 37° C. under 5% CO2.
# Passage cultivation was conducted three times a week. The cells were collected and counted at the exponential growth phase. 100 μL 1×10^6 MC-38-hPD-L1 cells suspension was inoculated into the right dorsal subcutaneous of C57BL/6-hPD-1 mice. 6 days after inoculation, 60 tumor-bearing mice with transplanted tumor volume ranging from 31.49 mm^3-110.26 mm^3 were selected, the mice were randomly divided into 6 groups, with 10 in each group, according to the experimental plan, and administration was started on the same day.
# Preparation of vehicle: 800 mL sterile water was measured and added to volumertic flask. Magnetic stirring was carried out to produce vortex on the liquid surface. An aqueous solution of 10% (w/v) Cremophor RH40+20% (w/v) SBE-β-CD was obtained by slow addition of 100 g Cremophor RH40, followed by 200 g SBE-β-CD, and water to fix the solution volume to 1000 mL with fully stirring.
# Preparation of Compound 29 suspension: 150.92 mg compound 29 was weighed and 12.5 […] 10% (w/v) Cremophor RH40+20% (w/v) SBE-β-CD (hereinafter referred to as vehicle) aqueous solution was added. A suspension was with a concentration of 12.0 mg/mL was obtained by fully mixing with vortexing for 2 minutes and ultrasonic treatment for 30 minutes. 5.0 mL of the suspension of compound 29 with a concentration of 12.0 mg/mL was pipetted, and 5.0 mL of vehicle was added to the suspension. The suspension with a concentration of 6.0 mg/mL was obtained by fully mixing with vortexing for 1 minute and ultrasonic treatment for 5 minutes. 2.0 mL of the suspension of compound 29 with a concentration of 12.0 mg/mL was pipetted, and 6.0 mL of vehicle was added to the suspension. The suspension with a concentration of 3.0 mg/mL was obtained by fully mixing with vortexing for 1 minute and ultrasonic treatment for 5 minutes. The suspension of compound 29 was prepared once a day.
# Preparation of PD-L1 antibody: […] of Durvalumab stock solution (concentration: 50 mg/mL) was pipetted and divided into 6 portions in 5 mL sterile centrifuge tube, with 6.0 mg in each portion, then the portions were stored in a 4° C. refrigerator for late use. Before administration, 0.12 mL of stock solution (concentration: 50 mg/mL) was pipetted, 2.88 mL of 0.9% sodium chloride solution was added to the stock solution. 3 mL of the solution of Durvalumab with a final concentration 2 mg/mL was obtained by shaking slightly and fully vortexing.
# 1) The mice in the vehicle control group were weighed and recorded in an electronic balance according to the number. The mice in the vehicle control group were administered by oral gavage with vehicle according to the weight twice a day with a capacity of 0.1 mL/10 g. The time for administration was about 20 s for each mouse, and about 5 minutes in total for each group of 10 mice. 2) The mice in the compound 29 (30 mg/kg) group were weighed and recorded in an electronic balance according to the number. The mice in this group were administered by oral gavage with the prepared Compound 29 suspension according to the weight twice a day with a dosage of 30 mg/kg and a capacity of 0.1 mL/10 g. The time for administration was about 20 s for each mouse, and about 5 minutes in total for each group of 10 mice. […]
# T1 sequence (Q9NZQ7 19-238 limits assumed): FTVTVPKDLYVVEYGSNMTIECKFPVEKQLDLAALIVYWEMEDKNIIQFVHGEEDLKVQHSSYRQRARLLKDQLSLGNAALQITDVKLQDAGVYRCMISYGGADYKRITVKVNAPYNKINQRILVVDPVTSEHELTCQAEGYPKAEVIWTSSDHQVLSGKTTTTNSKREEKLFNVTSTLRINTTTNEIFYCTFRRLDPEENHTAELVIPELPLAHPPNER
Compound,bioavailability [1] [%],IC50 (PD-1/PD-L1) [nM],further results
Cc1c(/C=C/c2cc(CNC(C)(CO)C(=O)O)ccc2C(F)(F)F)cccc1-c1ccc2c(c1)OCCO2 (stereo not shown),5.98,,
COc1cc(/C=C/c2cccc(-c3ccccc3)c2C)cc(OC)c1CN[C@@H](CO)C(=O)O,3.08,,
COc1cc(/C=C/c2cccc(-c3ccccc3)c2C)cc(OC)c1CN[C@@](C)(CO)C(=O)O,3.89,,
COc1cc(/C=C/c2cccc(-c3ccccc3)c2C)cc(OC)c1CN[C@](C)(CO)C(=O)O,4.42,,
"Cc1nc2ccc(-c3cccc(/C=C/c4cc(CN[C@@](C)(CO)C(=O)O)ccc4C(F)(F)F)c3C)cc2o1 [Compound 43, (S,E)-3-hydroxy-2-methyl-2-(3-(2-methyl-3-(2-methylbenzo[d]oxazol-6-yl)-styryl)-4-(trifluoromethyl)benzylamino)-3-hydroxy-2-methylpropanoic Acid]",,540,
"Durvalumab: PD-L1 antibody Imfinzi (Durvalumab), 50 mg/mL, manufacturer AstraZeneca [reference compound]",,,"Tumor Volume ([2]; Durvalumab 20 mg/kg, IP, BIW): 341.19 ± 56.59/D19 mm^3; TGI (tumor inhibition rate) ([2]; Durvalumab 20 mg/kg, IP, BIW, vs vehicle control): 48.17% and 48.17/D19%"

# Second part, led by results:
bioavailability [1] [%],IC50 (PD-1/PD-L1) [nM],Compound,further results
16.1,13,"Cc1c(/C=C/c2cc(CNC(CO)C(=O)O)ccc2C(F)(F)F)cccc1-c1ccccc1F (stereo not shown) [Compound 13, (E)-2-(3-(2-(2′-fluoro-2-methylbiphenyl-3-yl)vinyl)-4-(trifluoromethyl)benzylamino)-3-hydroxypropanoic Acid]",
52.3,18,"Cc1c(/C=C/c2cc(CN[C@](C)(CO)C(=O)O)ccc2C(F)(F)F)cccc1-c1ccccc1 [Compound 27, (R,E)-2-(3-(2-(2-methylbiphenyl-3-yl)vinyl)-4-(trifluoromethyl)benzylamino)-3-hydroxy-2-methylpropanoic Acid]",
38.2,19,"Cc1c(/C=C/c2cc(CN[C@@](C)(CO)C(=O)O)ccc2C(F)(F)F)cccc1-c1ccccc1 [Compound 29, (S,E)-2-(3-(2-(2-methylbiphenyl-3-yl)vinyl)-4-(trifluoromethyl)benzylamino)-3-hydroxy-2-methylpropanoic Acid]","Tumor Volume ([2]; 30 mg/kg, PO, BID): 459.82 ± 58.24/D19 mm^3; TGI (tumor inhibition rate) ([2]; 30 mg/kg, PO, BID, vs vehicle control): 24.95/D19%; Tumor Volume ([2]; 60 mg/kg, PO, BID): 439.04 ± 51.23/D19 mm^3; TGI (tumor inhibition rate) ([2]; 60 mg/kg, PO, BID, vs vehicle control): 29.06/D19%; Tumor Volume ([2]; 120 mg/kg, PO, BID): 325.23 ± 38.59/D19 mm^3; TGI (tumor inhibition rate) ([2]; 120 mg/kg, PO, BID, vs vehicle control (max tumor inhibition rate of Compound 29)): 51.21% and 51.21/D19%"
,580,"Cc1c(/C=C/c2cc(CN[C@@](C)(CO)C(=O)O)ccc2C(F)(F)F)cccc1-c1cccnc1 [Compound 40, (S,E)-3-hydroxy-2-methyl-2-(3-(2-methyl-3-(pyridin-3-yl)styryl)-4-(trifluoromethyl)benzylamino)propanoic Acid]",
,540,"Cc1c(/C=C/c2cc(CN[C@@](C)(CO)C(=O)O)ccc2C(F)(F)F)cccc1-c1cnccn1 [Compound 41, (S,E)-3-hydroxy-2-methyl-2-(3-(2-methyl-3-(pyrazin-2-yl)styryl)-4-(trifluoromethyl)benzylamino)propanoic Acid]",
,880,"Cc1c(/C=C/c2cc(CN[C@@](C)(CO)C(=O)O)ccc2C(F)(F)F)cccc1-c1ccc2cn(C)nc2c1 [Compound 42, (S,E)-3-hydroxy-2-methyl-2-(3-(2-methyl-3-(2-methyl-2H-indazol-6-yl)-styryl)-4-(trifluoromethyl)benzylamino)propanoic Acid]",
